# Assay results as given in US20170143701A1, “CARBOHYDRATE METABOLISM-AMELIORATING AGENT” (SUNTORY HOLDINGS LIMITED, priority 2014, published 2017).
# Key:
# [1] = system: NCI-H716 cells; assay: In vitro GLP-1 secretion-accelerating action: amount of active GLP-1 secreted (ELISA); format: cell-based; conditions: 1 hour; for Significant difference (p < 0.05) vs control group, amount of active GLP-1 secreted: 10 mM, Student's t-test; for Amount of active GLP-1 secreted (relative value to control group as 100), average value: cyclic dipeptide 10 mM with 10 μM Sitagliptin phosphate, group with no cyclic dipeptide = 100
# Procedure: Among the cyclic dipeptides, 92 highly water-soluble cyclic dipeptides were used in the following experiment. In each well of a Poly-L-Lysine 96-well plate, NCI-H716 cells suspended in 100 μL of a DMEM (with 10% FBS, 2 mM glutamine, and 1% antibiotics added in advance) were seeded at 0.5×10^5 cells/well, and cultured in a CO2 incubator (manufactured by ESPEC CORP.) for 48 hours. After washing with PBS(+), 100 μL of a PBS(+) solution with each cyclic dipeptide at a final concentration of 10 mM and 10 μM of Sitagliptin phosphate added therein was added to the cells. After 1 hour, the resultant solution was recovered, and the amount of active GLP-1 in the solution was measured by using the ELISA kit. In the analysis, the amount of active GLP-1 for a group with no cyclic dipeptide added was defined as 100, and relative values thereto were used.
# [2] = system: C57/BL6J mice; assay: In vivo plasma GLP-1 level-increasing action: plasma active GLP-1 level (ELISA) after oral administration; conditions: Table 15, Experiment 10, 10 mg/kg oral; for Significant difference (p < 0.05) vs control group, plasma active GLP-1 level: 30 minutes, Student's t-test; for Plasma active GLP-1 level (relative value to control group as 100), average value: blood 30 minutes after, 0.5% CMC-Na group = 100
# Procedure: Seven-week-old male C57/BL6J mice were purchased from CLEA Japan, Inc. for use, and they were subjected to an experiment after 1 week of a habituation period.
# After the habituation period, the mice were subjected to 5.5 hours of food deprivation and 2 hours of water deprivation. Thereafter, a cyclic dipeptide dissolved or suspended in a 0.5% CMC-Na aqueous solution in 10 mg/kg was orally administered to each mouse forcibly. After 30 minutes, the blood was collected from the abdominal vena cava under anesthesia, and 1 μL of heparin sodium and 1 μL of 10 mM Sitagliptin phosphate were added to each collected blood, which was then subjected to centrifugation at 8000 rpm for 10 minutes to recover the plasma, and the plasma active GLP-1 level was measured by using the ELISA kit. In the analysis, the active GLP-1 level for a group administered with 0.5% CMC-Na aqueous solution was defined as 100, and relative values thereto were used.
compound,measurement,setting,value
"O=C1N[C@@H](CO)C(=O)N[C@H]1CO [compound 1, Cyclo(Ser-Ser)]","Significant difference (p < 0.05) vs control group, amount of active GLP-1 secreted","[1]; Table 1, Experiment 1",No
same,"Amount of active GLP-1 secreted (relative value to control group as 100), average value","[1]; Table 1, Experiment 1",124
"O=C1CNC(=O)CN1 [compound 2, Cyclo(Gly-Gly)]","Significant difference (p < 0.05) vs control group, amount of active GLP-1 secreted","[1]; Table 5, Experiment 5",No
same,"Amount of active GLP-1 secreted (relative value to control group as 100), average value","[1]; Table 5, Experiment 5",151
"C[C@@H]1NC(=O)[C@H](C)NC1=O [compound 3, Cyclo(Ala-Ala)]","Significant difference (p < 0.05) vs control group, amount of active GLP-1 secreted","[1]; Table 1, Experiment 1",No
same,"Amount of active GLP-1 secreted (relative value to control group as 100), average value","[1]; Table 1, Experiment 1",95
"O=C1NCC(=O)N2CCC[C@@H]12 [compound 4, cyclo-glycyl-proline]","Significant difference (p < 0.05) vs control group, amount of active GLP-1 secreted","[1]; Table 5, Experiment 5",Yes
same,"Amount of active GLP-1 secreted (relative value to control group as 100), average value","[1]; Table 5, Experiment 5",157
"C[C@H]1NC(=O)[C@@H]2CCCN2C1=O [compound 5, Cyclo(D-Ala-Pro)]","Significant difference (p < 0.05) vs control group, amount of active GLP-1 secreted","[1]; Table 1, Experiment 1",No
same,"Amount of active GLP-1 secreted (relative value to control group as 100), average value","[1]; Table 1, Experiment 1",113
"O=C1[C@@H]2CCCN2C(=O)[C@@H]2CCCN12 [compound 6, Cyclo(Pro-Pro)]","Significant difference (p < 0.05) vs control group, amount of active GLP-1 secreted","[1]; Table 1, Experiment 1",No
same,"Amount of active GLP-1 secreted (relative value to control group as 100), average value","[1]; Table 1, Experiment 1",87
"O=C1N[C@@H](Cc2ccccc2)C(=O)N[C@H]1CO [compound 7, Cyclo(Phe-Ser)]","Significant difference (p < 0.05) vs control group, amount of active GLP-1 secreted","[1]; Table 1, Experiment 1",No
same,"Amount of active GLP-1 secreted (relative value to control group as 100), average value","[1]; Table 1, Experiment 1",106
"CC(C)[C@@H]1NC(=O)[C@@H]2CCCN2C1=O [compound 10, Cyclo(Val-Pro)]","Significant difference (p < 0.05) vs control group, amount of active GLP-1 secreted","[1]; Table 1, Experiment 1",No
same,"Amount of active GLP-1 secreted (relative value to control group as 100), average value","[1]; Table 1, Experiment 1",95
"CC(C)C[C@@H]1NC(=O)[C@@H]2CCCN2C1=O [compound 19, cyclo-leucyl-proline]","Significant difference (p < 0.05) vs control group, amount of active GLP-1 secreted","[1]; Table 1, Experiment 1",Yes
same,"Amount of active GLP-1 secreted (relative value to control group as 100), average value","[1]; Table 1, Experiment 1",173
"CC(C)C[C@@H]1NC(=O)CNC1=O [compound 21, Cyclo(Gly-Leu)]","Significant difference (p < 0.05) vs control group, amount of active GLP-1 secreted","[1]; Table 5, Experiment 5",No
same,"Amount of active GLP-1 secreted (relative value to control group as 100), average value","[1]; Table 5, Experiment 5",131
"C[C@@H]1NC(=O)[C@H](CCC(N)=O)NC1=O [compound 23, Cyclo(Ala-Gln)]","Significant difference (p < 0.05) vs control group, amount of active GLP-1 secreted","[1]; Table 5, Experiment 5",No
same,"Amount of active GLP-1 secreted (relative value to control group as 100), average value","[1]; Table 5, Experiment 5",99
"NC(=O)CC[C@@H]1NC(=O)CNC1=O [compound 24, Cyclo(Gln-Gly)]","Significant difference (p < 0.05) vs control group, amount of active GLP-1 secreted","[1]; Table 5, Experiment 5",No
same,"Amount of active GLP-1 secreted (relative value to control group as 100), average value","[1]; Table 5, Experiment 5",89
"O=C1CNC(=O)[C@H](Cc2cnc[nH]2)N1 [compound 27, Cyclo(Gly-His)]","Significant difference (p < 0.05) vs control group, amount of active GLP-1 secreted","[1]; Table 5, Experiment 5",No
same,"Amount of active GLP-1 secreted (relative value to control group as 100), average value","[1]; Table 5, Experiment 5",82
"O=C(O)C[C@@H]1NC(=O)CNC1=O [compound 32, Cyclo(Asp-Gly)]","Significant difference (p < 0.05) vs control group, amount of active GLP-1 secreted","[1]; Table 5, Experiment 5",Yes
same,"Amount of active GLP-1 secreted (relative value to control group as 100), average value","[1]; Table 5, Experiment 5",12
"NC(=O)CC[C@@H]1NC(=O)CNC1=O [compound 36, Cyclo(Gln-Gly)]","Significant difference (p < 0.05) vs control group, amount of active GLP-1 secreted","[1]; Table 5, Experiment 5",No
same,"Amount of active GLP-1 secreted (relative value to control group as 100), average value","[1]; Table 5, Experiment 5",75
"NCCCCC1NC(=O)C(CCCCN)NC1=O (stereo not shown) [compound 40, Cyclo(Lys-Lys)]","Significant difference (p < 0.05) vs control group, amount of active GLP-1 secreted","[1]; Table 1, Experiment 1",No
same,"Amount of active GLP-1 secreted (relative value to control group as 100), average value","[1]; Table 1, Experiment 1",164
"O=C(O)CCC1NC(=O)C2CCCN2C1=O (stereo not shown) [compound 45, Cyclo(Glu-Pro)]","Significant difference (p < 0.05) vs control group, amount of active GLP-1 secreted","[1]; Table 1, Experiment 1",No
same,"Amount of active GLP-1 secreted (relative value to control group as 100), average value","[1]; Table 1, Experiment 1",145
"O=C1NC(CO)C(=O)N2CCCC12 (stereo not shown) [compound 46, Cyclo(Ser-Pro)]","Significant difference (p < 0.05) vs control group, amount of active GLP-1 secreted","[1]; Table 2, Experiment 2",No
same,"Amount of active GLP-1 secreted (relative value to control group as 100), average value","[1]; Table 2, Experiment 2",139
"CC[C@H](C)[C@@H]1NC(=O)[C@@H]2CCCN2C1=O [compound 47, Cyclo(Ile-Pro)]","Significant difference (p < 0.05) vs control group, amount of active GLP-1 secreted","[1]; Table 2, Experiment 2",No
same,"Amount of active GLP-1 secreted (relative value to control group as 100), average value","[1]; Table 2, Experiment 2",79
"O=C1N[C@@H](Cc2c[nH]c3ccccc23)C(=O)N2CCC[C@@H]12 [compound 57, Cyclo(Trp-Pro)]","Significant difference (p < 0.05) vs control group, amount of active GLP-1 secreted","[1]; Table 2, Experiment 2",No
same,"Amount of active GLP-1 secreted (relative value to control group as 100), average value","[1]; Table 2, Experiment 2",81
"NCCCC[C@@H]1NC(=O)[C@@H]2CCCN2C1=O [compound 58, Cyclo(Lys-Pro)]","Significant difference (p < 0.05) vs control group, amount of active GLP-1 secreted","[1]; Table 2, Experiment 2",No
same,"Amount of active GLP-1 secreted (relative value to control group as 100), average value","[1]; Table 2, Experiment 2",91
"NCCCC[C@@H]1NC(=O)[C@H](Cc2c[nH]c3ccccc23)NC1=O [compound 59, cyclo-tryptophanyl-lysine]","Significant difference (p < 0.05) vs control group, amount of active GLP-1 secreted","[1]; Table 2, Experiment 2",Yes
same,"Amount of active GLP-1 secreted (relative value to control group as 100), average value","[1]; Table 2, Experiment 2",239
"NC(=O)CCC1NC(=O)C(Cc2ccccc2)NC1=O (stereo not shown) [compound 65, cyclo-glutaminyl-phenylalanine]","Significant difference (p < 0.05) vs control group, amount of active GLP-1 secreted","[1]; Table 2, Experiment 2",Yes
same,"Amount of active GLP-1 secreted (relative value to control group as 100), average value","[1]; Table 2, Experiment 2",227
"CC(C)CC1NC(=O)C(CCCCN)NC1=O (stereo not shown) [compound 68, Cyclo(Leu-Lys)]","Significant difference (p < 0.05) vs control group, amount of active GLP-1 secreted","[1]; Table 2, Experiment 2",No
same,"Amount of active GLP-1 secreted (relative value to control group as 100), average value","[1]; Table 2, Experiment 2",208
"C[C@@H]1NC(=O)[C@H](CCCCN)NC1=O [compound 69, Cyclo(Ala-Lys)]","Significant difference (p < 0.05) vs control group, amount of active GLP-1 secreted","[1]; Table 2, Experiment 2",No
same,"Amount of active GLP-1 secreted (relative value to control group as 100), average value","[1]; Table 2, Experiment 2",161
"O=C1NCC(=O)N2CC(O)CC12 (stereo not shown) [compound 73, Cyclo(Hyp-Gly)]","Significant difference (p < 0.05) vs control group, amount of active GLP-1 secreted","[1]; Table 2, Experiment 2",No
same,"Amount of active GLP-1 secreted (relative value to control group as 100), average value","[1]; Table 2, Experiment 2",121
"CSCCC1NC(=O)C(C(C)C)NC1=O (stereo not shown) [compound 160, cyclo-methionyl-valine]","Significant difference (p < 0.05) vs control group, plasma active GLP-1 level",[2],Yes
same,"Plasma active GLP-1 level (relative value to control group as 100), average value",[2],304
"CC[C@H](C)[C@@H]1NC(=O)[C@H]([C@H](C)O)NC1=O [compound 161, cyclo-isoleucyl-threonine]","Significant difference (p < 0.05) vs control group, plasma active GLP-1 level",[2],Yes
same,"Plasma active GLP-1 level (relative value to control group as 100), average value",[2],282
"CC[C@H](C)[C@@H]1NC(=O)[C@H](CC(=O)O)NC1=O [compound 162, cyclo-isoleucyl-aspartic acid]","Significant difference (p < 0.05) vs control group, plasma active GLP-1 level",[2],Yes
same,"Plasma active GLP-1 level (relative value to control group as 100), average value",[2],259
"CC[C@H](C)C1NC(=O)[C@H](CC(N)=O)NC1=O (stereo partly shown) [compound 163, cyclo-asparaginyl-isoleucine]","Significant difference (p < 0.05) vs control group, plasma active GLP-1 level",[2],Yes
same,"Plasma active GLP-1 level (relative value to control group as 100), average value",[2],327
"CSCC[C@@H]1NC(=O)[C@H]([C@H](C)O)NC1=O [compound 169, cyclo-methionyl-threonine]","Significant difference (p < 0.05) vs control group, plasma active GLP-1 level",[2],Yes
same,"Plasma active GLP-1 level (relative value to control group as 100), average value",[2],282
"CC1NC(=O)C(CS)NC1=O (stereo not shown) [compound 177, cyclo-alanyl-cysteine]","Significant difference (p < 0.05) vs control group, plasma active GLP-1 level",[2],Yes
same,"Plasma active GLP-1 level (relative value to control group as 100), average value",[2],282
"O=C1CNC(=O)C(CS)N1 (stereo not shown) [compound 178, cyclo-glycyl-cysteine]","Significant difference (p < 0.05) vs control group, plasma active GLP-1 level",[2],Yes
same,"Plasma active GLP-1 level (relative value to control group as 100), average value",[2],282
"O=C(O)CCC1NC(=O)C(CS)NC1=O (stereo not shown) [compound 179, cyclo-glutamyl-cysteine]","Significant difference (p < 0.05) vs control group, plasma active GLP-1 level",[2],Yes
same,"Plasma active GLP-1 level (relative value to control group as 100), average value",[2],304
"O=C1N[C@@H](CS)C(=O)N[C@H]1CO [compound 180, cyclo-seryl-cysteine]","Significant difference (p < 0.05) vs control group, plasma active GLP-1 level",[2],Yes
same,"Plasma active GLP-1 level (relative value to control group as 100), average value",[2],259
